Where two headings read alike, the source gives them in different places.
Legend:
[1] = test system: adult patients with uncontrolled gout
Excerpt: As used herein, an “adverse event” or “AE” refers to any untoward medical occurrence associated with the use of a drug in humans, whether it is considered drug-related or not. An AE or suspected adverse reaction is considered a “serious adverse event” or “SAE” if, in the view of either the Investigator or Sponsor, it results in any of the following outcomes: (1) Death, (2) Life-threatening: an AE is considered “life-threatening” if, in the view of either the Investigator or Sponsor, its occurrence places the subject or subject at immediate risk of death. […] (5) A congenital anomaly/birth defect; (6) Important medical events that may not result in death, be life-threatening, or require hospitalization may be considered serious when, based upon appropriate medical judgment, they may jeopardize the patient or subject and may require medical or surgical intervention to prevent one of the outcomes listed in this definition.
Safety Variables: Safety was assessed via AE and concomitant medication use monitoring, physical examinations, vital signs, clinical safety laboratory evaluations (hematology, chemistry, urine uric acid:creatinine ratio), pregnancy testing (if applicable), electrocardiograms (ECGs), and AEs of special interest (i.e., IRs, anaphylaxis, gout flares, and cardiovascular events).
AEs of special interest may include IRs, anaphylaxis, gout flares, and cardiovascular events.
Severity in accordance with the disclosure is reported according to the following: Grade 1 (Mild)—No interference with daily activity. Grade 2 (Moderate)—Some interference with daily activity but medical intervention not required (e.g., doctor visit and/or medication); over the counter medicine permitted. Grade 3 (Severe)—Prevents daily activity and requires medical intervention (e.g., doctor visit and/or medication). Grade 4 (Potentially Life-threatening)—Emergency room visit or hospitalization.
An AE was defined as any untoward event, whether or not it was considered related to the use of pegloticase or MTX. Any worsening (i.e., any clinically significant adverse change in frequency or intensity) of a preexisting condition which was temporally associated with the use of pegloticase or MTX was also considered an AE. Abnormal laboratory values or test results constitute AEs only if they induce clinical signs or symptoms or require therapy, and were recorded on the AE CRF under the signs, symptoms or were associated with diagnoses associated with them. Screening conditions were not considered AE; however, worsening of a preexisting condition may be considered an AE. AEs were collected starting at the baseline, Visit 1.
TEAEs during the Pegloticase+IMM Period were defined as events that occur after the start of the first pegloticase infusion through 30 days after the last dose of pegloticase and/or MTX or placebo for MTX (whichever was later). TEAEs that occur during the MTX Tolerability Assessment Period prior to randomization (Weeks −6 to −4) was summarized separately for the MTX population. […] AEs that occur more than 30 days after the last dose of pegloticase and/or MTX or placebo for MTX through the 6-month follow-up visit was also summarized.
The number and percentage of subjects experiencing AEs were summarized by system organ class and preferred term. Summaries by maximum severity and relationship to MTX and/or pegloticase was also provided. SAEs and AEs leading to discontinuation of MTX and/or pegloticase were presented by system organ class and preferred term.

[2] = test system: patients; settings: cited from earlier work
[3] = test system: patients with refractory chronic gout; settings: Phase 2 program; cited from earlier work
[4] = Methotrexate Run-in Period, ITT (N = 15)
[5] = Methotrexate Run-in Period, mITT (N = 14)

CN(Cc1cnc2nc(N)nc(N)c2n1)c1ccc(C(=O)N[C@@H](CCC(=O)O)C(=O)O)cc1 [MTX, methotrexate]
Infections And Infestations, % [1]: (13.3) %
Abdominal Discomfort, % [1, 4]: (13.3) %
Abdominal Discomfort, Incidence Rate [1, 4]: 1.8 Events/PY of MTX
Any TEAEs, % [1, 4]: (66.7) %
Any TEAEs, Incidence Rate [1, 4]: 18.2 Events/PY of MTX
Blood And Lymphatic System Disorders, % [1, 4]: (6.7) %
Blood And Lymphatic System Disorders, Incidence Rate [1, 4]: 1.8 Events/PY of MTX
Chronic Sinusitis, % [1, 4]: (6.7) %
Chronic Sinusitis, Incidence Rate [1, 4]: 0.9 Events/PY of MTX
Cough, % [1, 4]: (6.7) %
Cough, Incidence Rate [1, 4]: 0.9 Events/PY of MTX
Dental Caries, % [1, 4]: (6.7) %
Dental Caries, Incidence Rate [1, 4]: 0.9 Events/PY of MTX
Diarrhoea, % [1, 4]: (6.7) %
Diarrhoea, Incidence Rate [1, 4]: 0.9 Events/PY of MTX
Dry Eye, % [1, 4]: (6.7) %
Dry Eye, Incidence Rate [1, 4]: 0.9 Events/PY of MTX
Eye Disorders, % [1, 4]: (6.7) %
Eye Disorders, Incidence Rate [1, 4]: 0.9 Events/PY of MTX
Gastrointestinal Disorders, % [1, 4]: (33.3) %
Gastrointestinal Disorders, Incidence Rate [1, 4]: 5.5 Events/PY of MTX
Gout, % [1, 4]: (33.3) %
Gout, Incidence Rate [1, 4]: 5.5 Events/PY of MTX
Headache, % [1, 4]: (6.7) %
Headache, Incidence Rate [1, 4]: 0.9 Events/PY of MTX
Leukopenia, % [1, 4]: (6.7) %
Leukopenia, Incidence Rate [1, 4]: 0.9 Events/PY of MTX
Metabolism And Nutrition Disorders, % [1, 4]: (33.3) %
Metabolism And Nutrition Disorders, Incidence Rate [1, 4]: 5.5 Events/PY of MTX
Nasopharyngitis, % [1, 4]: (6.7) %
Nasopharyngitis, Incidence Rate [1, 4]: 0.9 Events/PY of MTX
Nausea, % [1, 4]: (13.3) %
Nausea, Incidence Rate [1, 4]: 1.8 Events/PY of MTX
Nervous System Disorders, % [1, 4]: (6.7) %
Nervous System Disorders, Incidence Rate [1, 4]: 0.9 Events/PY of MTX
Neutropenia, % [1, 4]: (6.7) %
Neutropenia, Incidence Rate [1, 4]: 0.9 Events/PY of MTX
Pruritus, % [1, 4]: (6.7) %
Pruritus, Incidence Rate [1, 4]: 0.9 Events/PY of MTX
Respiratory, Thoracic And Mediastinal Disorders, % [1, 4]: (6.7) %
Respiratory, Thoracic And Mediastinal Disorders, Incidence Rate [1, 4]: 0.9 Events/PY of MTX
Skin And Subcutaneous Tissue Disorders, % [1, 4]: (6.7) %
Skin And Subcutaneous Tissue Disorders, Incidence Rate [1, 4]: 0.9 Events/PY of MTX
Abdominal Discomfort, % [1, 5]: (14.3) %
Abdominal Discomfort, Incidence Rate [1, 5]: 2.0 Events/PY of MTX
Any TEAEs, % [1, 5]: (71.4) %
Any TEAEs, Incidence Rate [1, 5]: 20.0 Events/PY of MTX
Blood And Lymphatic System Disorders, % [1, 5]: (7.1) %
Blood And Lymphatic System Disorders, Incidence Rate [1, 5]: 2.0 Events/PY of MTX
Chronic Sinusitis, % [1, 5]: (7.1) %
Chronic Sinusitis, Incidence Rate [1, 5]: 1.0 Events/PY of MTX
Cough, % [1, 5]: (7.1) %
Cough, Incidence Rate [1, 5]: 1.0 Events/PY of MTX
Dental Caries, % [1, 5]: (7.1) %
Dental Caries, Incidence Rate [1, 5]: 1.0 Events/PY of MTX
Diarrhoea, % [1, 5]: (7.1) %
Diarrhoea, Incidence Rate [1, 5]: 1.0 Events/PY of MTX
Dry Eye, % [1, 5]: (7.1) %
Dry Eye, Incidence Rate [1, 5]: 1.0 Events/PY of MTX
Eye Disorders, % [1, 5]: (7.1) %
Eye Disorders, Incidence Rate [1, 5]: 1.0 Events/PY of MTX
Gastrointestinal Disorders, % [1, 5]: (35.7) %
Gastrointestinal Disorders, Incidence Rate [1, 5]: 6.0 Events/PY of MTX
Gout, % [1, 5]: (35.7) %
Gout, Incidence Rate [1, 5]: 6.0 Events/PY of MTX
Headache, % [1, 5]: (7.1) %
Headache, Incidence Rate [1, 5]: 1.0 Events/PY of MTX
Infections And Infestations, % [1, 5]: (14.3) %
Infections And Infestations, Incidence Rate [1, 5]: 2.0 Events/PY of MTX
Infections And Infestations, Total Events [1, 5]: 2
Leukopenia, % [1, 5]: (7.1) %
Leukopenia, Incidence Rate [1, 5]: 1.0 Events/PY of MTX
Metabolism And Nutrition Disorders, % [1, 5]: (35.7) %
Metabolism And Nutrition Disorders, Incidence Rate [1, 5]: 6.0 Events/PY of MTX
Nasopharyngitis, % [1, 5]: (7.1) %
Nasopharyngitis, Incidence Rate [1, 5]: 1.0 Events/PY of MTX
Nausea, % [1, 5]: (14.3) %
Nausea, Incidence Rate [1, 5]: 2.0 Events/PY of MTX
Nervous System Disorders, % [1, 5]: (7.1) %
Nervous System Disorders, Incidence Rate [1, 5]: 1.0 Events/PY of MTX
Neutropenia, % [1, 5]: (7.1) %
Neutropenia, Incidence Rate [1, 5]: 1.0 Events/PY of MTX
Pruritus, % [1, 5]: (7.1) %
Pruritus, Incidence Rate [1, 5]: 1.0 Events/PY of MTX
Respiratory, Thoracic And Mediastinal Disorders, % [1, 5]: (7.1) %
Respiratory, Thoracic And Mediastinal Disorders, Incidence Rate [1, 5]: 1.0 Events/PY of MTX
Skin And Subcutaneous Tissue Disorders, % [1, 5]: (7.1) %
Skin And Subcutaneous Tissue Disorders, Incidence Rate [1, 5]: 1.0 Events/PY of MTX
Infections And Infestations, Incidence Rate ([1]; human, in vivo, 4 weeks): 1.8 Events/PY of MTX
Infections And Infestations, Total Events ([1]; human, in vivo, 4 weeks): 2
tolerability of MTX ([1]; oral 15 mg/week, all patients): tolerated
Increased susceptibility to infection ([2]; RA): < 1%
Leukopenia ([2]; RA): 28%
Nausea and vomiting ([2]; RA): 12%
Increased susceptibility to infection ([2]; renal transplant): 20%
Leukopenia ([2]; renal transplant): > 50%
neoplasia (lymphoma) ([2]; renal transplant): 0.5%
neoplasia (other than lymphoma) ([2]; renal transplant): 3%

pegloticase
dose-response plateau dose [3]: 12 mg
minimally effective dose [3]: 4 mg
safe and optimally effective dose [3]: 8 mg
